Experimental data as given in patent US5124342A, “4-hydroxythiazoles as 5-lipoxygenase inhibitors” (Abbott Laboratories, priority 1990, dated 1992).

These compounds were tested against T1, 5-lipoxygenase (Rattus norvegicus, UniProt P12527) (assay: 5-Lipoxygenase inhibition, 20,000×g supernatant of homogenized RBL-1 cells, radiolabeled arachidonic acid). Conditions: 5-lipoxygenase from RBL-1 20,000 × g supernatant; read-out: IC50 (95% CL).
T1 construct: homogenized RBL-1 cells; endogenous in cells; host or cells: RBL-1 cells (20,000×g supernatant of homogenate)
T1 sequence (P12527 1-673): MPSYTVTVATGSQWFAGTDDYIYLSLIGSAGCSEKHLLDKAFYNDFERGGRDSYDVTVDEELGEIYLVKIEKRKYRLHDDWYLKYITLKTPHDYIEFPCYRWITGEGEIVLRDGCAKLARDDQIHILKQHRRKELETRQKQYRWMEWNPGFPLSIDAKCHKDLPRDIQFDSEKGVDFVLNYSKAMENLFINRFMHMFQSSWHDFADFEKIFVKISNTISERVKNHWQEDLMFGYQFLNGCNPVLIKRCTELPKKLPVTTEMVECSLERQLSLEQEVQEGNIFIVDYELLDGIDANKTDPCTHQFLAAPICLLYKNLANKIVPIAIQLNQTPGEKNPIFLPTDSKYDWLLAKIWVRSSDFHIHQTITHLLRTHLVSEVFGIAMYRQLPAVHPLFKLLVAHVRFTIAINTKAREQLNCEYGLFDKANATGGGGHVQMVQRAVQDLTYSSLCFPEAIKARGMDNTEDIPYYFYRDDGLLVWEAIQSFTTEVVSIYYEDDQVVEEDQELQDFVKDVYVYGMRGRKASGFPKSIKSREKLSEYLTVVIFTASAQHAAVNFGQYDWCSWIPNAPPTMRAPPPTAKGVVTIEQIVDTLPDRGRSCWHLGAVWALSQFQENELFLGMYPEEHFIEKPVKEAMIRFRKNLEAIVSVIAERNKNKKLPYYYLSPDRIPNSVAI
Assay type: biochemical
Experimental: Proc., Fed. Am. Soc. Exp. Biol. 1984, 43, […]. Reactions were initiated by the addition of radiolabeled arachidonic acid and terminated by acidification and ether extraction. Reaction products were separated from nonconvented substrate by thin layer chromatography and measured by liquid scintillation spectroscopy. Inhibition of 5-lipoxygenase activity was calculated as the ratio of the amounts of product formed in the presence and absence of inhibitor.

SMILES	IC50 [µM]
COc1ccc2nc(-c3nc(O)c(C)s3)sc2c1 [Example 6, 2-[2-(6-Methoxybenzothiazolyl)]-4-hydroxy-5-methylthiazole]	0.89
Cc1sc(-c2ccc(F)cc2)nc1O [Example 9, 2-(4-Fluorophenyl)-4-hydroxy-5-methylthiazole]	0.35
Cc1sc(-c2ccc(Br)cc2)nc1O [Example 10, 2-(4-Bromophenyl)-4-hydroxy-5-methylthiazole]	0.51
Cc1sc(-c2ccc(Cl)cc2)nc1O [Example 11, 2-(4-Chlorophenyl)-4-hydroxy-5-methylthiazole]	0.57
Cc1sc(-c2ccccc2F)nc1O [Example 24, 2-(2-Fluorophenyl)-4-hydroxy-5-methylthiazole]	0.5
Cc1sc(-c2cccc(F)c2)nc1O [Example 25, 2-(3-Fluorophenyl)-4-hydroxy-5-methylthiazole]	0.66
Cc1sc(-c2cccc(Br)c2)nc1O [Example 26, 2-(3-Bromophenyl)-4-hydroxy-5-methylthiazole]	0.48
Cc1cccc(-c2nc(O)c(C)s2)c1Cl [Example 29, 2-(2-Chloro-3-methylphenyl)-4-hydroxy-5-methylthiazole]	0.82
Cc1ccc(-c2nc(O)c(C)s2)cc1 [Example 33, 2-(4-Methylphenyl)-4-hydroxy-5-methylthiazole]	0.63
COC(=O)c1ccc(-c2nc(OC(C)=O)c(C)s2)cc1 [Example 60, 2-(4-Carbomethoxyphenyl)-4-acetoxy-5-methylthiazole]	0.69
CCCCc1sc(-c2ccccc2)nc1OC(C)=O [Example 67, 2-Phenyl-4-acetoxy-5-butylthiazole]	0.95

Further lines, results first:

IC50 [µM]	SMILES
0.98	Cc1sc(-c2ccc(C(=O)OCCc3ccccc3)cc2)nc1O [Example 13, 2-(4-Carbo-2-phenethoxyphenyl)-4-hydroxy-5-methylthiazole]
0.88	COC(=O)c1ccc(-c2nc(O)c(C)s2)cc1 [Example 17, 2-(4-Carbomethoxyphenyl)-4-hydroxy-5-methylthiazole]
0.9	CC(=O)c1ccc(-c2nc(O)c(C)s2)cc1 [Example 18, 2-(4-Acetylphenyl)-4-hydroxy-5-methylthiazole]
0.7	Cc1sc(-c2ccc(C#N)cc2)nc1O [Example 20, 2-(4-Cyanophenyl)-4-hydroxy-5-methylthiazole]
0.71	CCOC(=O)c1ccc(-c2nc(O)c(C)s2)cc1 [Example 23, 2-(4-Carboethoxyphenyl)-4-hydroxy-5-methylthiazole]
0.96	Cc1sc(-c2ccccc2)nc1O [Example 31, 2-Phenyl-4-hydroxy-5-methylthiazole]
0.53	Oc1nc(-c2ccccc2)sc1-c1ccccc1 [Example 34, 2-Phenyl-4-hydroxy-5-phenylthiazole]
0.83	CCc1sc(-c2ccccc2)nc1O [Example 35, 2-Phenyl-4-hydroxy-5-ethylthiazole]
0.58	CCCc1sc(-c2ccccc2)nc1O [Example 36, 2-Phenyl-4-hydroxy-5-propylthiazole]
0.69	Oc1nc(-c2ccccc2)sc1CCc1ccccc1 [Example 38, 2-Phenyl-4-hydroxy-5-phenethylthiazole]
0.75	CCOC(=O)CCC(=O)Oc1nc(-c2ccccc2)sc1-c1ccccc1 [Example 53, 2-Phenyl-4-ethyl succinyloxy-5-phenylthiazole]
0.91	CCCc1sc(-c2ccccc2)nc1OC(=O)OCC [Example 54, 2-Phenyl-[4-(carboethoxy)oxy]-5-propylthiazole]

Same assay, conditions: at 0.3 μM; RBL-1 20,000 × g supernatant; read-out: % Inhibition at μM Conc.

inhibition at 0.3 µM [%]	SMILES
83	Oc1nc(-c2cccnc2)sc1-c1ccccc1 [Example 41, 2-(3-Pyridyl)-4-hydroxy-5-phenylthiazole]
88	COc1ccc(-c2nc(O)c(-c3ccccc3)s2)cc1 [Example 43, 2-(4-Methoxyphenyl)-4-hydroxy-5-phenylthiazole]

Same assay, conditions: at 0.4 μM; RBL-1 20,000 × g supernatant; read-out: % Inhibition at μM Conc.

inhibition at 0.4 µM [%]	SMILES
91	Cc1ccc(-c2nc(O)c(-c3ccccc3)s2)cc1 [Example 46, 2-(4-Methylphenyl)-4-hydroxy-5-phenylthiazole]
82	Oc1nc(-c2ccc(F)cc2)sc1-c1ccccc1 [Example 47, 2-(4-Fluorophenyl)-4-hydroxy-5-phenylthiazole]
77	CCOc1ccc(-c2nc(O)c(-c3ccccc3)s2)cc1 [Example 48, 2-(4-Ethoxyphenyl)-4-hydroxy-5-phenylthiazole]

SMILES	inhibition at 0.4 µM [%]
CC(=O)Oc1nc(-c2ccccc2)sc1-c1ccccc1 [Example 50, 2-Phenyl-4-acetoxy-5-phenylthiazole]	88

Same assay, conditions: at 0.5 μM; RBL-1 20,000 × g supernatant; read-out: % Inhibition at μM Conc.

SMILES	inhibition at 0.5 µM [%]
CC(=O)Oc1nc(-c2ccc(C)cc2)sc1-c1ccccc1 [Example 62, 2-(4-Methylphenyl)-4-acetoxy-5-phenylthiazole]	93

Same assay, conditions: at 0.75 μM; RBL-1 20,000 × g supernatant; read-out: % Inhibition at μM Conc.

SMILES	inhibition at 0.75 µM [%]
CC(=O)Oc1nc(-c2ccc(-c3ccccc3)cc2)sc1-c1ccccc1 [Example 65, 2-Biphenyl-4-acetoxy-5-phenylthiazole]	82

Same assay, conditions: at 1 μM; RBL-1 20,000 × g supernatant; read-out: % Inhibition at μM Conc.

SMILES	inhibition at 1 µM [%]
CCCCCc1nc(OC(C)=O)c(CCC)s1 [Example 68, 2-Pentyl-4-acetoxy-5-propylthiazole]	79
